Values of other authors in patent publication US20110081416A1, “ORDERED MESOPOROUS SILICA MATERIAL” (FORMAC Pharmaceuticals N.V., priority 2008, published 2011).

Legend:
[1] = not given; remark: listed apart in the source
[2] = Table 3, acids with a pKa of less than 2

## NC(=O)N1c2ccccc2C=Cc2ccccc21 [Carbamazepine, 5H-dibenz[b,f]azepine-5-carboxamide]
Alcohol and acetone
  solubility in alcohol and acetone (in words): soluble
other
  solubility in water (in words): practically insoluble

## C#C[C@]1(O)CC[C@H]2[C@@H]3CCC4=Cc5oncc5C[C@]4(C)[C@H]3CC[C@@]21C [Danazol, 17a-Pregna-2,4-dien-20-yno[2,3-d]-isoxazol-17-ol]
[1]; doubling the dose
  increase in plasma concentration on doubling the dose: 30-40%
[1]; in vivo
  half-life: 4 to 5 h
[1]; oral
  time of peak (plasma) concentrations: ≤ 2 h

## CCC(C)n1ncn(-c2ccc(N3CCN(c4ccc(OCC5COC(Cn6cncn6)(c6ccc(Cl)cc6Cl)O5)cc4)CC3)cc2)c1=O (stereo not shown) [Itraconazole]
other
  solubility in water (in words): poorly soluble

## CC(=O)O[C@H]1C(=O)[C@@]2(C)[C@H]([C@H](OC(=O)c3ccccc3)[C@]3(O)C[C@H](OC(=O)[C@H](O)[C@@H](NC(=O)c4ccccc4)c4ccccc4)C(C)=C1C3(C)C)[C@]1(OC(C)=O)CO[C@@H]1C[C@@H]2O [Paclitaxel]
other
  solubility in water (in words): insoluble

## C=CC[C@@H]1/C=C(\C)C[C@H](C)C[C@H](OC)[C@H]2O[C@@](O)(C(=O)C(=O)N3CCCC[C@H]3C(=O)O[C@H](/C(C)=C/[C@@H]3CC[C@@H](O)[C@H](OC)C3)[C@H](C)[C@@H](O)CC1=O)[C@H](C)C[C@@H]2OC [Tacrolimus]
[1]; 5 mg dose taken twice a day
  absolute bioavailability: approximately 17%
ethanol
  solubility in ethanol (in words): freely soluble
Methanol and chloroform
  solubility in methanol and chloroform (in words): very soluble
other
  solubility in water (in words): practically insoluble

## O=S(=O)(O)NC1CCCCC1 [cyclamic acid]
[2]
  pKa: 1.90

## O=S(O)O [sulfurous acid]
[2]
  pKa: 1.81
